Results on four compounds are retold here after patent publication US9937183B2, “Antimicrobial compounds and methods of making and using the same” (priority 2013, dated 2018).

Values after ≈ are worked out from the molar mass of the structure shown. Read-outs that look alike come from different tables or passages of the source.

Common to all, as to format: cell-based
The test system of one assay is B. mallei. Nature of the assay: microbe, parasite or virus in culture. The settings on record: Burkholderia mallei; for MIC50: read-out: B. mallei MIC50; for MIC90: read-out: B. mallei MIC90; for MIC: read-out: B. mallei MIC Range.
In a further assay the test system is B. pseudomallei. Nature of the assay: microbe, parasite or virus in culture. The following applies: Burkholderia pseudomallei; for MIC50: read-out: B. pseudomallei MIC50; for MIC90: read-out: B. pseudomallei MIC90; for MIC: read-out: B. pseudomallei MIC Range.
The next assay deals with Y. pestis. Nature of the assay: microbe, parasite or virus in culture. The following applies: Yersinia pestis; for MIC50: read-out: Y. pestis MIC50; for MIC90: read-out: Y. pestis MIC90; for MIC: read-out: Y. pestis MIC Range.
The subject of the next assay is P. aeruginosa ATCC27853. Nature of the assay: MIC, microtiter-based liquid assay (CLSI). The following applies: Pseudomonas aeruginosa.
The next assay deals with E. coli 1705878. The assay is described as follows: MIC, microtiter-based liquid assay (CLSI). The following applies: Escherichia coli, MDR strain.
Assay [1] has as its system S. pneumoniae 02J1175 Mef(A). The assay is described as follows: MIC, microtiter-based liquid assay (CLSI). The following applies: Streptococcus pneumoniae.
The test system of assay [2] is E. faecium A6349 VanA + LNZ-R. Nature of the assay: MIC, microtiter-based liquid assay (CLSI). The settings on record: Enterococcus faecium.
Another assay relates to E. coli CAG12184 TolC. Nature of the assay: MIC, microtiter-based liquid assay (CLSI). The following applies: Escherichia coli, CAG12184TOLC.
The subject of another assay is A. baumannii 1705943. Nature of the assay: MIC, microtiter-based liquid assay (CLSI). The settings on record: Acinetobacter baumannii.
The next assay relates to F. tularensis. Nature of the assay: microbe, parasite or virus in culture. The following applies: Francisella tularensis; for MIC50: read-out: F. tularensis MIC50; for MIC90: read-out: F. tularensis MIC90; for MIC: read-out: F. tularensis MIC Range.
Another assay relates to A. baumannii 1705936. The assay is described as follows: MIC, microtiter-based liquid assay (CLSI). The following applies: Acinetobacter baumannii, MDR strain.
Another assay deals with P. aeruginosa 1705904. Nature of the assay: MIC, microtiter-based liquid assay (CLSI). The following applies: Pseudomonas aeruginosa, MDR strain.
The next assay relates to K. pneumoniae 1705966. Nature of the assay: MIC, microtiter-based liquid assay (CLSI). The following applies: Klebsiella pneumoniae.
The test system of a further assay is E. coli MG1655 parent. The assay is described as follows: MIC, microtiter-based liquid assay (CLSI). The settings on record: Escherichia coli.
Another assay has as its system S. aureus 11540 MRSA. The assay is described as follows: MIC, microtiter-based liquid assay (CLSI). The following applies: Staphylococcus aureus.
The test system of the next assay is E. coli ATCC25922. The assay is described as follows: MIC, microtiter-based liquid assay (CLSI). The following applies: Escherichia coli.
The subject of another assay is B. anthracis. The assay is described as follows: microbe, parasite or virus in culture. The settings on record: Bacillus anthracis; for MIC50: read-out: B. anthracis MIC50; for MIC90: read-out: B. anthracis MIC90; for MIC: read-out: B. anthracis MIC Range.
In the next assay the test system is P. aeruginosa 1705886. The assay is described as follows: MIC, microtiter-based liquid assay (CLSI). The following applies: Pseudomonas aeruginosa.
A further assay has as its system K. pneumoniae 1705949. Nature of the assay: MIC, microtiter-based liquid assay (CLSI). The following applies: Klebsiella pneumoniae, MDR strain.
[3] abbreviates: ATCC25922, read-out: MIC E. coli ATCC25922 + 50% HS.
Setting [4] is: ATCC25922, read-out: MIC E. coli ATCC25922.

For `CC[C@H]1OC(=O)[C@H](C)[C@@H](O[C@H]2C[C@@](C)(OC)[C@@H](O)[C@H](C)O2)[C@H](C)[C@@H](O[C@@H]2O[C@H](C)C[C@H](N(C)C)[C@H]2O)[C@](C)(O)C[C@@H](C)CN(C)[C@H](C)[C@@H](O)[C@]1(C)O` [Azithromycin, reference compound], in the assay on B. mallei, the MIC50 was 0.5 µg/mL (≈ 0.668 µM), the MIC90 was 1 µg/mL (≈ 1.34 µM) and the MIC was 0.12 to 1 µg/mL (≈ 0.16 to 1.34 µM).

In the case of `CC(C)(O/N=C(\C(=O)N[C@@H]1C(=O)N2C(C(=O)[O-])=C(C[n+]3ccccc3)CS[C@H]12)c1csc(N)n1)C(=O)O` [Ceftazidime, reference compound], in the assay on B. pseudomallei, the MIC50 came out at 2 µg/mL (≈ 3.66 µM), the MIC90 came to 4 µg/mL (≈ 7.32 µM) and the MIC lay within 1 to 64 µg/mL (≈ 1.83 to 117 µM).

For the compound `C[C@@H](N)CCCc1cc(Cl)c(F)c(-c2cc3cn(-c4ccc(CNCCCNC(=N)N)cc4)c(=O)nc3[nH]2)c1` [Compound 1], the MIC50 with Y. pestis was 0.12 µg/mL (≈ 0.217 µM); with B. pseudomallei, 4 µg/mL (≈ 7.23 µM); with F. tularensis, at most 0.03 µg/mL; in the assay with B. mallei, at most 0.03 µg/mL; with B. anthracis it was 0.12 µg/mL (≈ 0.217 µM). The MIC90 in the assay with Y. pestis is 0.25 µg/mL (≈ 0.452 µM); in the assay on B. pseudomallei it was 4 µg/mL (≈ 7.23 µM); in the assay with F. tularensis, at most 0.03 µg/mL; in the assay with B. mallei it was 0.06 µg/mL (≈ 0.108 µM); in the assay on B. anthracis it was 0.25 µg/mL (≈ 0.452 µM). Moreover, the MIC in the assay on Y. pestis was 0.03 to 0.5 µg/mL (≈ 0.0542 to 0.904 µM); against P. aeruginosa ATCC27853 it was 4 µg/mL (≈ 7.23 µM); with E. coli 1705878, 1 µg/mL (≈ 1.81 µM); in assay [1], 0.25 µg/mL (≈ 0.452 µM); in [2], 4 µg/mL; against E. coli CAG12184 TolC, 0.06 µg/mL (≈ 0.108 µM). Besides, the MIC in the assay on A. baumannii 1705943 was 0.25 µg/mL (≈ 0.452 µM); in the assay with B. pseudomallei it was 0.5 to 16 µg/mL (≈ 0.904 to 28.9 µM); in the assay with F. tularensis, 0.03 to 0.5 µg/mL (≈ 0.0542 to 0.904 µM); in the assay on A. baumannii 1705936, 4 µg/mL (≈ 7.23 µM); in the assay with P. aeruginosa 1705904, 8 µg/mL (≈ 14.5 µM); against K. pneumoniae 1705966 it was 0.25 µg/mL (≈ 0.452 µM). Further, the MIC in the assay with E. coli MG1655 parent is 0.5 µg/mL (≈ 0.904 µM); in the assay with S. aureus 11540 MRSA, 0.125 µg/mL (≈ 0.226 µM); with E. coli ATCC25922 (setting [3]), 0.125 µg/mL; in the assay with E. coli ATCC25922 (setting [4]), 0.125 µg/mL (≈ 0.226 µM); with B. mallei, 0.03 to 0.25 µg/mL (≈ 0.0542 to 0.452 µM); in the assay on B. anthracis, 0.03 to 0.25 µg/mL (≈ 0.0542 to 0.452 µM). In addition, the MIC in the assay with P. aeruginosa 1705886 and with K. pneumoniae 1705949 was 2 µg/mL (≈ 3.62 µM) each time.

Turning to `CCc1cc(CCC[C@H](C)N)cc(-c2cc3cn(-c4ccc(CNCCCNC(=N)N)cc4)c(=O)nc3[nH]2)c1F` [Compound 2], the MIC50 in the assay with Y. pestis was 0.12 µg/mL (≈ 0.22 µM); with B. pseudomallei, 2 µg/mL (≈ 3.66 µM); with F. tularensis it was at most 0.03 µg/mL; with B. mallei, at most 0.03 µg/mL; in the assay on B. anthracis, 0.12 µg/mL (≈ 0.22 µM). Further, the MIC90 was 0.25 µg/mL (≈ 0.457 µM) in the assay with Y. pestis; 4 µg/mL (≈ 7.32 µM) in the assay with B. pseudomallei; at most 0.03 µg/mL in the assay on F. tularensis; 0.06 µg/mL (≈ 0.11 µM) with B. mallei; 0.12 µg/mL (≈ 0.22 µM) in the assay on B. anthracis. Moreover, the MIC with Y. pestis was 0.03 to 0.25 µg/mL (≈ 0.0549 to 0.457 µM); in the assay on P. aeruginosa ATCC27853 it was 4 µg/mL (≈ 7.32 µM); against E. coli 1705878 it was 1 µg/mL (≈ 1.83 µM); in [1], 0.125 µg/mL (≈ 0.229 µM); in assay [2], 2 µg/mL; in the assay with E. coli CAG12184 TolC, 0.125 µg/mL (≈ 0.229 µM). In addition, the MIC against A. baumannii 1705943 is 0.25 µg/mL (≈ 0.457 µM); in the assay on B. pseudomallei it was 0.5 to 8 µg/mL (≈ 0.915 to 14.6 µM); in the assay with F. tularensis, 0.03 to 0.25 µg/mL (≈ 0.0549 to 0.457 µM); against A. baumannii 1705936 it was 4 µg/mL (≈ 7.32 µM); in the assay on P. aeruginosa 1705904 it was 8 µg/mL (≈ 14.6 µM); in the assay with K. pneumoniae 1705966 it was 0.25 µg/mL (≈ 0.457 µM). Besides, the MIC with E. coli MG1655 parent was 0.25 µg/mL (≈ 0.457 µM); against S. aureus 11540 MRSA it was 0.25 µg/mL (≈ 0.457 µM); in the assay with E. coli ATCC25922 (setting [3]) it was 0.25 µg/mL; in the assay with E. coli ATCC25922 (setting [4]), 0.125 µg/mL (≈ 0.229 µM); in the assay with B. mallei, 0.03 to 0.25 µg/mL (≈ 0.0549 to 0.457 µM); in the assay on B. anthracis, 0.03 to 1 µg/mL (≈ 0.0549 to 1.83 µM). For the same compound, the MIC in the assay on P. aeruginosa 1705886 came out at 2 µg/mL (≈ 3.66 µM); with K. pneumoniae 1705949, 0.5 µg/mL (≈ 0.915 µM).
